Data taken from paper PMC7304070 (Journal of the American Chemical Society, 2020).

What was measured:
[1] = Circular dichroism helicity; assay type: physicochemical; details: for Helicity, Stabilized (S): CD, 10 μM in 1:1 water:acetonitrile, molar ellipticity at 222 nm, stabilized peptide
[2] = molecular target: MDM2-GST (Homo sapiens, UniProt Q00987); assay: Bacterial surface display; assay type: binding; details: for BSD Kd Ratio (NS/S): non-stabilized / stabilized Kd on bacterial surface
[3] = molecular target: MDM2 truncate (residues 10–118) (Homo sapiens, UniProt Q00987); assay: Bio-layer interferometry; assay type: binding; details: non-stabilized / stabilized Kd in solution (fold improvement upon stabilization)
Chain of MDM2 truncate (residues 10–118) (Q00987 10-118): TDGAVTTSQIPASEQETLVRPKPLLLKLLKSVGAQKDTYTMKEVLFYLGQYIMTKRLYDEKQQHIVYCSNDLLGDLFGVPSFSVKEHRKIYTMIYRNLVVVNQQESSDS

Chain of MDM2-GST (Q00987 whole entry, the tested form may be a part): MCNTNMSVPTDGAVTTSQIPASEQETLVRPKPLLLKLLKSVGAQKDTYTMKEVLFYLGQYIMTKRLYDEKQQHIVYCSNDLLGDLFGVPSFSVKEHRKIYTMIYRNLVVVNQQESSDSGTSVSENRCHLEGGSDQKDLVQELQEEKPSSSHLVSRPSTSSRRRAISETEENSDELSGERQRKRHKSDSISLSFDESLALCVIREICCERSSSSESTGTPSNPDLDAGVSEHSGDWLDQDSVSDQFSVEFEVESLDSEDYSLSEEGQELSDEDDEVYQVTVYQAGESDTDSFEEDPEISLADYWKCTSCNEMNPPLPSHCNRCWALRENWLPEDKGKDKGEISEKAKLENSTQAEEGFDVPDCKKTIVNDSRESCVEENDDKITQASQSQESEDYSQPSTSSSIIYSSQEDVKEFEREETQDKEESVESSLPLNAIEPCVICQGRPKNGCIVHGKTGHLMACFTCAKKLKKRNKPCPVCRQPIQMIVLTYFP

| Sequence | Helicity, Stabilized (S) [1] [%] | BSD Kd Ratio (NS/S) [2] | BLI Kd Ratio (NS/S) [3] | other results |
| --- | --- | --- | --- | --- |
| QTFXDLWRLLXQN (sidechain bridge or staple) [SPD-M0-E(0)] | 41 | – | – | – |
| ETFXDLWRLLXEN (sidechain bridge or staple) [SPD-M0-E(−2)] | 53 | – | – | – |
| QTFXDLWRLLXEN (sidechain bridge or staple) [SPD-M0-E(−1)] | 40 | – | – | – |
| ETAXDLWRLLXEN (sidechain bridge or staple) [SPD-M0-E(−2)-F19A] | 50 | – | – | binding as displayed on the bacterial cell surface ([2]; negative controls, Figure S1): did not exhibit measurable binding |
| VLSFXDYWNLLXGS (sidechain bridge or staple) [SPD-M3-V1] | – | 6.6 | 9.4 | – |
| GGTFXGYWADLXAF (sidechain bridge or staple) [SPD-M3-G1] | 18 | 1.4 | 4.1 | improvement in affinity over the starting sequence SPD-M0-E(−2) ([2]; bacterial surface, stabilized, after 3 rounds of sorting, n = 3 independent trials of duplicates): ~5 fold; Helicity Ratio (S/NS) ([1]; stabilized / non-stabilized helicity): 1.1 |
